These results are taken from patent US20240336654A1, “ANTIMICROBIAL PEPTIDOMIMETICS” (SPEXIS AG, priority 2021, published 2024).

Structures are written as SMILES. Where a SMILES comes first, the peptide text is derived from it. Bridges are numbered along the chain shown (N, C = ends). [ ]: non-standard residue; d: D form. Pro(trans-4-F) = O=C(O)[C@@H]1C[C@@H](F)CN1; Pro(cis-4-F) = O=C(O)[C@@H]1C[C@H](F)CN1; Hyp = O=C(O)[C@@H]1C[C@@H](O)CN1; Pen = CC(C)(S)[C@H](N)C(=O)O; Tle = CC(C)(C)[C@H](N)C(=O)O; dDab = NCC[C@@H](N)C(=O)O; Dab = NCC[C@H](N)C(=O)O; Abu = CC[C@H](N)C(=O)O

Type in all cases: cell-based
Data set [1] concerns human red blood cells (hRBC). Conditions: red cells of human, 1 h, 200 μg/mL. The protocol:
Lyophilized peptides were weighed on a Microbalance (Mettler MT5) and dissolved in sterile water to a final concentration of 1 mg/mL. Stock solutions were kept at +4° C., light protected. The peptides were tested for their hemolytic activity against human red blood cells (hRBC). Fresh hRBC were washed three times with phosphate buffered saline (PBS) and centrifuged for 5 min at 3000×g. Compounds (200 μg/mL) were incubated with 20% hRBC (v/v) for 1 h at 37° C. and shaking at 300 rpm. A value of 0% and 100% cell lyses, respectively, was determined by incubation of hRBC in the presence of PBS and 2.5% Triton X-100 in H2O, respectively. The samples were centrifuged, the supernatants were 8-fold diluted in PBS buffer and the optical densities (OD) were measured at 540 nm. The 100% lyses value (OD540H2O) gave an OD540 of approximately 0.5-1.0. Percent hemolysis was calculated as follows: (OD540peptide/OD540H2O)×100%.

Data set [2] deals with Klebsiella pneumoniae SSI3010. Conditions: SSI3010. The protocol:
(§1) Lyophilized peptides were weighed on a Microbalance (Mettler MT5) and dissolved in sterile water to a final concentration of 1 mg/mL. Stock solutions were kept at +4° C., light protected.
(§2) The selective antimicrobial activities of the peptides were determined in 96-well plates (Greiner, polystyrene) by the standard CLSI broth microdilution method (Clinical and Laboratory Standards Institute. Methods for Dilution Antimicrobial Susceptibility Tests for Bacteria That Grow Aerobically; Approved Standard-Ninth Edition. CLSI document M07-A9 (ISBN 1-56238-783-9 [Print]; ISBN 1-56238-784-7 [Electronic]). Clinical and Laboratory Standards Institute, 950 West Valley Road, Suite 2500, Wayne, Pennsylvania 19087, USA, 2012) with slight modifications.
(§3) Colonies of the microorganisms were diluted in saline (0.85%, NaCl) and adjusted using a McFarland reader (bioMérieux SA, Marcy-l'Etoile, France) to 0.5 McFarland standard. Subsequently, the bacterial suspension was diluted in Mueller-Hinton II (MHII, cation adjusted) broth to give approximately 5×10^5 colony forming units (CFU/mL).
(§4) Inocula of the microorganisms were diluted into Mueller-Hinton II (MH, cation adjusted) broth and compared with a 0.5 McFarland standard to give appr. 10^6 colony forming units (CFU)/mL. Aliquots (90 μl) of inoculate were added to 10 μl of water+P-80 (Polysorbate 80, 0.002% final concentration) containing the peptide in serial two-fold dilutions at 10 fold final concentration. The following microorganisms were used to determine antibiotic selectivity of the peptides: Escherichia coli ATCC 25922, Escherichia coli MCR-1 Af 45 and Klebsiella pneumoniae SSI3010. Antimicrobial activities of the peptides were expressed as the minimal inhibitory concentration (MIC) in μg/mL at which no visible growth was observed after 18-20 hours of incubation at 35° C.

Data set [3] has as its system Escherichia coli MCR-1 Af 45. Conditions: MCR-1 Af 45. The protocol: as §1, §2, §3, §4
Data set [4] relates to Escherichia coli ATCC 25922. Conditions: ATCC 25922. The protocol:
as §1, §2, §3, §4

For the molecule `CC[C@H](C)[C@H](NC(=O)[C@@H]1C[C@@H](O)CN1C(=O)[C@@H](N)C(C)C)C(=O)N[C@@H]1C(=O)N[C@@H](Cc2ccc(O)cc2)C(=O)N[C@@H](CO)C(=O)N[C@@H](CC(N)=O)C(=O)N[C@@H](CCCNC(=N)N)C(=O)N[C@@H](CCN)C(=O)N[C@@H]([C@@H](C)O)C(=O)N[C@H](CCN)C(=O)N[C@@H](CCCCN)C(=O)N[C@@H](CCN)C(=O)N[C@@H](CCN)C(=O)N[C@H](C(=O)N[C@@H](Cc2ccc(O)cc2)C(=O)O)CSSC1(C)C` [Example 1, Val-Hyp-Ile-Pen-Tyr-Ser-Asn-Arg-Dab-Thr-^DDab-Lys-Dab-Dab-Cys-Tyr] (H-V[Hyp]I[Pen]YSNR[Dab]T[dDab]K[Dab][Dab]CY-OH; disulfide 4-15), in data set [1], the “Hemolysis at 0.2 g/L” value was less than 1%. Besides, the “Klebsiella pneumoniae SSI3010 MIC” value in data set [2] amounted to 0.25 mg/L. For the same molecule, in data set [3], the “Escherichia coli MCR-1 Af45 MIC” value is 0.03125 mg/L. In data set [4], the “Escherichia coli ATCC 25922 MIC” value came to 0.125 mg/L.
Taken in the same sequence, the figures for `CC[C@H](N)C(=O)N1C[C@H](O)C[C@H]1C(=O)N[C@H](C(=O)N[C@@H]1C(=O)N[C@@H](Cc2ccc(O)cc2)C(=O)N[C@@H](CO)C(=O)N[C@@H](CC(N)=O)C(=O)N[C@@H](CCCNC(=N)N)C(=O)N[C@@H](CCN)C(=O)N[C@@H]([C@@H](C)O)C(=O)N[C@H](CCN)C(=O)N[C@@H](CCCCN)C(=O)N[C@@H](CCN)C(=O)N[C@@H](CCN)C(=O)N[C@H](C(=O)N[C@@H](Cc2ccc(O)cc2)C(=O)O)CSSC1(C)C)[C@@H](C)CC` [Example 2, Abu-Hyp-Ile-Pen-Tyr-Ser-Asn-Arg-Dab-Thr-^DDab-Lys-Dab-Dab-Cys-Tyr] (H-[Abu][Hyp]I[Pen]YSNR[Dab]T[dDab]K[Dab][Dab]CY-OH; disulfide 4-15) were less than 1%, 0.25 mg/L, 0.125 mg/L and 0.25 mg/L.
As to `CC[C@H](C)[C@H](NC(=O)[C@@H]1C[C@@H](O)CN1C(=O)[C@@H](N)C(C)(C)C)C(=O)N[C@@H]1C(=O)N[C@@H](Cc2ccc(O)cc2)C(=O)N[C@@H](CO)C(=O)N[C@@H](CC(N)=O)C(=O)N[C@@H](CCCNC(=N)N)C(=O)N[C@@H](CCN)C(=O)N[C@@H]([C@@H](C)O)C(=O)N[C@H](CCN)C(=O)N[C@@H](CCCCN)C(=O)N[C@@H](CCN)C(=O)N[C@@H](CCN)C(=O)N[C@H](C(=O)N[C@@H](Cc2ccc(O)cc2)C(=O)O)CSSC1(C)C` [Example 3, tBuGly-Hyp-Ile-Pen-Tyr-Ser-Asn-Arg-Dab-Thr-^DDab-Lys-Dab-Dab-Cys-Tyr] (H-[Tle][Hyp]I[Pen]YSNR[Dab]T[dDab]K[Dab][Dab]CY-OH; disulfide 4-15), the “Hemolysis at 0.2 g/L” value in data set [1] was less than 1%. The “Klebsiella pneumoniae SSI3010 MIC” value in data set [2] was 0.25 mg/L. The “Escherichia coli MCR-1 Af45 MIC” value in data set [3] was 0.125 mg/L. Further, in data set [4], the “Escherichia coli ATCC 25922 MIC” value is reported as 0.125 mg/L.
Consider `CC[C@H](C)[C@H](NC(=O)[C@@H]1CCCN1C(=O)[C@@H](N)C(C)C)C(=O)N[C@@H]1C(=O)N[C@@H](Cc2ccc(O)cc2)C(=O)N[C@@H](CO)C(=O)N[C@@H](CC(N)=O)C(=O)N[C@@H](CCCNC(=N)N)C(=O)N[C@@H](CCN)C(=O)N[C@@H]([C@@H](C)O)C(=O)N[C@H](CCN)C(=O)N[C@@H](CCCCN)C(=O)N[C@@H](CCN)C(=O)N[C@@H](CCN)C(=O)N[C@H](C(=O)N[C@@H](Cc2ccc(O)cc2)C(=O)O)CSSC1(C)C` [Example 4, Val-Pro-Ile-Pen-Tyr-Ser-Asn-Arg-Dab-Thr-^DDab-Lys-Dab-Dab-Cys-Tyr] (H-VPI[Pen]YSNR[Dab]T[dDab]K[Dab][Dab]CY-OH; disulfide 4-15), for which the “Hemolysis at 0.2 g/L” value in data set [1] is given as less than 1%. Moreover, the “Klebsiella pneumoniae SSI3010 MIC” value in data set [2] came to 0.125 mg/L. Moreover, in data set [3], the “Escherichia coli MCR-1 Af45 MIC” value was found to be 0.0625 mg/L. In addition, the “Escherichia coli ATCC 25922 MIC” value in data set [4] stood at 0.0625 mg/L.
`CC[C@H](C)[C@H](NC(=O)[C@@H]1CCCN1C(=O)[C@@H](N)C(C)C)C(=O)N[C@@H]1C(=O)N[C@@H](Cc2ccc(O)cc2)C(=O)N[C@@H]([C@@H](C)O)C(=O)N[C@@H](CC(N)=O)C(=O)N[C@@H](CCCNC(=N)N)C(=O)N[C@@H](CCN)C(=O)N[C@@H]([C@@H](C)O)C(=O)N[C@H](CCN)C(=O)N[C@@H](CCCCN)C(=O)N[C@@H](CCN)C(=O)N[C@@H](CCN)C(=O)N[C@H](C(=O)N[C@@H](Cc2ccc(O)cc2)C(=O)O)CSSC1(C)C` [Example 5, Val-Pro-Ile-Pen-Tyr-Thr-Asn-Arg-Dab-Thr-^DDab-Lys-Dab-Dab-Cys-Tyr] (H-VPI[Pen]YTNR[Dab]T[dDab]K[Dab][Dab]CY-OH; disulfide 4-15): in data set [1], the “Hemolysis at 0.2 g/L” value is less than 1%. The “Klebsiella pneumoniae SSI3010 MIC” value in data set [2] is given as 0.25 mg/L. Further, in data set [3], the “Escherichia coli MCR-1 Af45 MIC” value came to 0.0625 mg/L. The “Escherichia coli ATCC 25922 MIC” value in data set [4] is given as 0.125 mg/L.
Turning to `CC[C@H](C)[C@H](NC(=O)[C@@H]1C[C@@H](OC)CN1C(=O)[C@@H](N)C(C)C)C(=O)N[C@@H]1C(=O)N[C@@H](Cc2ccc(O)cc2)C(=O)N[C@@H]([C@@H](C)O)C(=O)N[C@@H](CC(N)=O)C(=O)N[C@@H](CCCNC(=N)N)C(=O)N[C@@H](CCN)C(=O)N[C@@H]([C@@H](C)O)C(=O)N[C@H](CCN)C(=O)N[C@@H](CCCCN)C(=O)N[C@@H](CCN)C(=O)N[C@@H](CCN)C(=O)N[C@H](C(=O)N[C@@H](Cc2ccc(O)cc2)C(=O)O)CSSC1(C)C` [Example 6, Val-Pro((4R)OMe)-Ile-Pen-Tyr-Thr-Asn-Arg-Dab-Thr-^DDab-Lys-Dab-Dab-Cys-Tyr] (H-V[Hyp](Me)I[Pen]YTNR[Dab]T[dDab]K[Dab][Dab]CY-OH; disulfide 4-15), in data set [1], the “Hemolysis at 0.2 g/L” value was less than 1%. Moreover, in data set [2], the “Klebsiella pneumoniae SSI3010 MIC” value is recorded as 0.25 mg/L. The “Escherichia coli MCR-1 Af45 MIC” value in data set [3] is 0.125 mg/L. Further, the “Escherichia coli ATCC 25922 MIC” value in data set [4] is listed as 0.125 mg/L.
Consider `CC[C@H](C)[C@H](NC(=O)[C@@H]1C[C@H](F)CN1C(=O)[C@@H](N)C(C)C)C(=O)N[C@@H]1C(=O)N[C@@H](Cc2ccc(O)cc2)C(=O)N[C@@H]([C@@H](C)O)C(=O)N[C@@H](CC(N)=O)C(=O)N[C@@H](CCCNC(=N)N)C(=O)N[C@@H](CCN)C(=O)N[C@@H]([C@@H](C)O)C(=O)N[C@H](CCN)C(=O)N[C@@H](CCCCN)C(=O)N[C@@H](CCN)C(=O)N[C@@H](CCN)C(=O)N[C@H](C(=O)N[C@@H](Cc2ccc(O)cc2)C(=O)O)CSSC1(C)C` [Example 7, Val-Pro((4S)F)-Ile-Pen-Tyr-Thr-Asn-Arg-Dab-Thr-^DDab-Lys-Dab-Dab-Cys-Tyr] (H-V[Pro(cis-4-F)]I[Pen]YTNR[Dab]T[dDab]K[Dab][Dab]CY-OH; disulfide 4-15), for which the “Hemolysis at 0.2 g/L” value in data set [1] is recorded as less than 1%. Also, in data set [2], the “Klebsiella pneumoniae SSI3010 MIC” value is recorded as 0.25 mg/L. In data set [3], the “Escherichia coli MCR-1 Af45 MIC” value was 0.125 mg/L. Moreover, the “Escherichia coli ATCC 25922 MIC” value in data set [4] is 0.125 mg/L.
On to `CC[C@H](C)[C@H](NC(=O)[C@@H]1C[C@@H](F)CN1C(=O)[C@@H](N)C(C)C)C(=O)N[C@@H]1C(=O)N[C@@H](Cc2ccc(O)cc2)C(=O)N[C@@H]([C@@H](C)O)C(=O)N[C@@H](CC(N)=O)C(=O)N[C@@H](CCCNC(=N)N)C(=O)N[C@@H](CCN)C(=O)N[C@@H]([C@@H](C)O)C(=O)N[C@H](CCN)C(=O)N[C@@H](CCCCN)C(=O)N[C@@H](CCN)C(=O)N[C@@H](CCN)C(=O)N[C@H](C(=O)N[C@@H](Cc2ccc(O)cc2)C(=O)O)CSSC1(C)C` [Example 8, Val-Pro((4R)F)-Ile-Pen-Tyr-Thr-Asn-Arg-Dab-Thr-^DDab-Lys-Dab-Dab-Cys-Tyr] (H-V[Pro(trans-4-F)]I[Pen]YTNR[Dab]T[dDab]K[Dab][Dab]CY-OH; disulfide 4-15), for which the “Hemolysis at 0.2 g/L” value in data set [1] was less than 1%. Besides, in data set [2], the “Klebsiella pneumoniae SSI3010 MIC” value stood at 0.25 mg/L. Besides, the “Escherichia coli MCR-1 Af45 MIC” value in data set [3] amounted to 0.0625 mg/L. Besides, the “Escherichia coli ATCC 25922 MIC” value in data set [4] is 0.125 mg/L.
